Biological target: T1, human TAS1R2-I486V (subunit alone) (Homo sapiens, UniProt Q8TE23, I486V)
T1 construct: expressed in transfected cells; host or cells: HEK293T-Gα16gust44
T1 sequence (Q8TE23 20-839 I486V): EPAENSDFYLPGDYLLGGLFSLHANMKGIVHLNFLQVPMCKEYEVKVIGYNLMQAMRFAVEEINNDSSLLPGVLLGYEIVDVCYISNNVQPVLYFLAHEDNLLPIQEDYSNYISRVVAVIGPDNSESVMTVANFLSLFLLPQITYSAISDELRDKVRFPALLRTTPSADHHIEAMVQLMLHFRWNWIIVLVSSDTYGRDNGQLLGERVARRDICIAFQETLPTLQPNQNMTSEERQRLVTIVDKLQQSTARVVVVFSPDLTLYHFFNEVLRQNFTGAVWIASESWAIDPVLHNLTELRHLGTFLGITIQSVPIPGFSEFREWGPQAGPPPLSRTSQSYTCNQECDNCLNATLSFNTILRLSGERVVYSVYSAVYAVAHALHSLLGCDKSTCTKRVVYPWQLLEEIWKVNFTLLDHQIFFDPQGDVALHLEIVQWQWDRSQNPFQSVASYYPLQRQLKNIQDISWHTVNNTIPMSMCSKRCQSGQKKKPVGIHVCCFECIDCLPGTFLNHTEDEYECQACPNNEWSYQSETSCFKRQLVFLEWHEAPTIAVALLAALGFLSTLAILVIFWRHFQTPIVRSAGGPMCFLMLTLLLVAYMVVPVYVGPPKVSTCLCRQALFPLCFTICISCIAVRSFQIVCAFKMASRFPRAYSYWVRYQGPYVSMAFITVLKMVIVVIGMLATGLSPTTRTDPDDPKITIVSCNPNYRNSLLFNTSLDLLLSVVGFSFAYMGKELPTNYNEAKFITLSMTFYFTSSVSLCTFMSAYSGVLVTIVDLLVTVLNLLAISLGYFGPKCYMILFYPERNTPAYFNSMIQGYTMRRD
Test: Calcium mobilisation assay, TAS1R2-I486V subunit alone
Assay type: cell-based
Source text: The coding sequences for TAS1R2 and TAS1R3 were commercially synthesised, and the human codon was optimised for expression in human cells. The coding sequences of human TAS1R2 and TAS1R3 were subcloned and inserted into the mammalian expression vectors pcDNA6/myc-HisA and pcDNA4/myc-HisA (Invitrogen; Thermo Fisher Scientific; Illkirch, France) between the EcoRI and NotI restriction sites, generating the plasmids pcDNA6-TAS1R2 and pcDNA4-TAS1R3, respectively. To increase protein expression in mammalian cells, an upstream start codon was used, which was a sequence called MAX, corresponding to the QBI SP163 element also described in pcDNA4-HisMax (Invitrogen; Thermo Fisher Scientific; Illkirch, France). To measure the expression level of the receptor by immunohistochemistry, we used the FLAG sequence ([…]) in the C-terminal position, which encodes the FLAG tag epitope. […]
The HEK293T cells were kindly provided by Jay P. Slack (Givaudan Flavors Corporation; Cincinnati, OH, USA). […] The fluorescence intensity was measured for 90 s (excitation 488 nm, emission 510 nm) in an automated fluorometric FlexStation®3 Multi-Mode microplate reader (Molecular Devices; San Jose, CA, USA). […] The Ca^2+ changes were expressed as fractional changes in fluorescent light intensity: ΔF/F = (F − F0)/F0, where F was the fluorescent light intensity at each point, and F0 was the value of emitted fluorescent light prior to stimulus application. To calculate dose–response relationships, the changes in fluorescence upon stimulus application were averaged, mock-subtracted and baseline-corrected. […] The half-maximal effective concentrations (EC50 values) and maximal signal amplitudes were calculated using SigmaPlot software (version 15.0) (Systat Software; San Jose, CA, USA).
For in vitro calcium mobilisation assay performed on hTAS1R2-SNPs, hTAS1R3-SNPs and mTAS1R3-I60T, 6 to 7 concentrations were tested for each sweet compound, plus buffer alone. All concentration–receptor combinations were measured in duplicate, and each experiment was repeated at least 4 times (8 wells/concentration). […]

EC50: 124 ± 14.1 µM
R1 = Variant EC50/WT EC50: 1.4
Max ΔF/F0 (maximal signal amplitude): 0.39 ± 0.02
Structure (SMILES): C=C(C)[C@@H]1CC=C(/C=N/O)CC1 [Perillartine, perillartine]

Source: publication PMC11945486, “TAS1R2/TAS1R3 Single-Nucleotide Polymorphisms Affect Sweet Taste Receptor Activation by Sweeteners: The SWEET Project” (Nutrients, 2025)
